Data on five cell lines can be found in the supplement of paper PMC10307832.

Test in all cases: relative viability (nuclei count vs DMSO), 5 days (fraction); higher = more cells survive
Compound in the test “Tanzisertib + Navitoclax”: O[C@H]1CC[C@H](Nc2ncc3nc(Nc4c(F)cc(F)cc4F)n([C@H]4CCOC4)c3n2)CC1 [Tanzisertib] + CC1(C)CCC(c2ccc(Cl)cc2)=C(CN2CCN(c3ccc(C(=O)NS(=O)(=O)c4ccc(N[C@H](CCN5CCOCC5)CSc5ccccc5)c(S(=O)(=O)C(F)(F)F)c4)cc3)CC2)C1 [Navitoclax] (partner 0.5 µM)
In short, it runs like this: (§1)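 Lung cancer cell lines were pin-tool dosed in 1536-well plates on the day after seeding, with either a lone drug or a fixed anchor-drug dose plus five library-drug doses (not always all listed) in √10 steps. Nuclei were counted on 4× images after 5 days. Relative viability is the ratio of treated-well to vehicle-well nuclei counts, with each value a median of duplicate plates.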

Compound in the test “Tanzisertib + Pemetrexed”: O[C@H]1CC[C@H](Nc2ncc3nc(Nc4c(F)cc(F)cc4F)n([C@H]4CCOC4)c3n2)CC1 [Tanzisertib] + Nc1nc2[nH]cc(CCc3ccc(C(=O)N[C@@H](CCC(=O)O)C(=O)O)cc3)c2c(=O)[nH]1 [Pemetrexed] (partner 0.2 µM)
The method in brief:
as §1

Compound in the test “Tanzisertib + Dasatinib”: O[C@H]1CC[C@H](Nc2ncc3nc(Nc4c(F)cc(F)cc4F)n([C@H]4CCOC4)c3n2)CC1 [Tanzisertib] + Cc1nc(Nc2ncc(C(=O)Nc3c(C)cccc3Cl)s2)cc(N2CCN(CCO)CC2)n1 [Dasatinib] (partner 0.075 µM)
The method in brief: as §1

Compound in the test “Tanzisertib + Foretinib”: O[C@H]1CC[C@H](Nc2ncc3nc(Nc4c(F)cc(F)cc4F)n([C@H]4CCOC4)c3n2)CC1 [Tanzisertib] + COc1cc2c(Oc3ccc(NC(=O)C4(C(=O)Nc5ccc(F)cc5)CC4)cc3F)ccnc2cc1OCCCN1CCOCC1 [Foretinib] (partner 0.25 µM)
In short, it runs like this: as §1

As for PC-14, the relative viability is 1.03 with Tanzisertib + Navitoclax (first compound 0.08 µM); 1.05 in the test with Tanzisertib + Navitoclax (first compound 0.253 µM); 0.934 with Tanzisertib + Navitoclax (first compound 0.8 µM); 1.02 with Tanzisertib + Navitoclax (first compound 2.53 µM); 0.736 with Tanzisertib + Navitoclax (first compound 8 µM); 0.134 with Tanzisertib + Pemetrexed (first compound 0.08 µM). The relative viability with Tanzisertib + Pemetrexed (first compound 0.253 µM) turned out to be 0.131; in the test with Tanzisertib + Pemetrexed (first compound 0.8 µM), 0.129; with Tanzisertib + Pemetrexed (first compound 2.53 µM), 0.0897; in the test with Tanzisertib + Pemetrexed (first compound 8 µM), 0.104; with Tanzisertib + Dasatinib (first compound 0.08 µM), 0.341; in the test with Tanzisertib + Dasatinib (first compound 0.253 µM), 0.238. In addition, the relative viability with Tanzisertib + Dasatinib (first compound 0.8 µM) was 0.306; with Tanzisertib + Dasatinib (first compound 2.53 µM), 0.234; with Tanzisertib + Dasatinib (first compound 8 µM), 0.116; with Tanzisertib + Foretinib (first compound 0.08 µM), 1.05; with Tanzisertib + Foretinib (first compound 0.253 µM) it was 0.983; with Tanzisertib + Foretinib (first compound 0.8 µM) it was 0.933. The relative viability is 0.951 with Tanzisertib + Foretinib (first compound 2.53 µM) and 0.61 with Tanzisertib + Foretinib (first compound 8 µM).

Regarding RERF-LC-KJ, the relative viability in the test with Tanzisertib + Navitoclax (first compound 0.08 µM) was determined as 0.918; in the test with Tanzisertib + Navitoclax (first compound 0.253 µM), 0.789; with Tanzisertib + Navitoclax (first compound 0.8 µM), 0.791; with Tanzisertib + Navitoclax (first compound 2.53 µM), 0.818; in the test with Tanzisertib + Navitoclax (first compound 8 µM) it was 0.882; with Tanzisertib + Pemetrexed (first compound 0.08 µM) it was 0.429. The relative viability came out at 0.468 with Tanzisertib + Pemetrexed (first compound 0.253 µM); 0.486 with Tanzisertib + Pemetrexed (first compound 0.8 µM); 0.423 with Tanzisertib + Pemetrexed (first compound 2.53 µM); 0.442 with Tanzisertib + Pemetrexed (first compound 8 µM); 0.95 in the test with Tanzisertib + Dasatinib (first compound 0.08 µM); 0.814 in the test with Tanzisertib + Dasatinib (first compound 0.253 µM). For the same cell line, the relative viability in the test with Tanzisertib + Dasatinib (first compound 0.8 µM) was found to be 0.912; in the test with Tanzisertib + Dasatinib (first compound 2.53 µM), 0.685; in the test with Tanzisertib + Dasatinib (first compound 8 µM), 0.744; with Tanzisertib + Foretinib (first compound 0.08 µM) it was 0.929; with Tanzisertib + Foretinib (first compound 0.253 µM), 0.788; with Tanzisertib + Foretinib (first compound 0.8 µM) it was 0.873. Also, the relative viability was found to be 0.841 in the test with Tanzisertib + Foretinib (first compound 2.53 µM) and 0.842 in the test with Tanzisertib + Foretinib (first compound 8 µM).

Take SK-LU-1: the relative viability with Tanzisertib + Navitoclax (first compound 0.08 µM) was 0.834; with Tanzisertib + Navitoclax (first compound 0.253 µM), 0.748; in the test with Tanzisertib + Navitoclax (first compound 0.8 µM), 0.759; in the test with Tanzisertib + Navitoclax (first compound 2.53 µM), 1.25; with Tanzisertib + Navitoclax (first compound 8 µM), 0.8; in the test with Tanzisertib + Pemetrexed (first compound 0.08 µM) it was 1.07. For the same cell line, the relative viability with Tanzisertib + Pemetrexed (first compound 0.253 µM) came to 0.949; with Tanzisertib + Pemetrexed (first compound 0.8 µM), 1.02; with Tanzisertib + Pemetrexed (first compound 2.53 µM), 0.969; in the test with Tanzisertib + Pemetrexed (first compound 8 µM) it was 0.979; in the test with Tanzisertib + Dasatinib (first compound 0.08 µM), 0.212; with Tanzisertib + Dasatinib (first compound 0.253 µM), 0.165. The relative viability with Tanzisertib + Dasatinib (first compound 0.8 µM) came to 0.18; with Tanzisertib + Dasatinib (first compound 2.53 µM), 0.148; in the test with Tanzisertib + Dasatinib (first compound 8 µM) it was 0.165; with Tanzisertib + Foretinib (first compound 0.08 µM), 0.837; with Tanzisertib + Foretinib (first compound 0.253 µM) it was 0.755; with Tanzisertib + Foretinib (first compound 0.8 µM), 0.807. The relative viability with Tanzisertib + Foretinib (first compound 2.53 µM) stood at 0.815; in the test with Tanzisertib + Foretinib (first compound 8 µM) it was 0.781.

Turning to SK-MES-1, the relative viability came out at 1.31 in the test with Tanzisertib + Navitoclax (first compound 0.08 µM); 1.25 with Tanzisertib + Navitoclax (first compound 0.253 µM); 1.26 with Tanzisertib + Navitoclax (first compound 0.8 µM); 1.22 in the test with Tanzisertib + Navitoclax (first compound 2.53 µM); 1.21 with Tanzisertib + Navitoclax (first compound 8 µM); 0.971 in the test with Tanzisertib + Pemetrexed (first compound 0.08 µM). For the same cell line, the relative viability with Tanzisertib + Pemetrexed (first compound 0.253 µM) was found to be 0.887; with Tanzisertib + Pemetrexed (first compound 0.8 µM), 0.962; with Tanzisertib + Pemetrexed (first compound 2.53 µM), 0.982; in the test with Tanzisertib + Pemetrexed (first compound 8 µM), 0.737; with Tanzisertib + Dasatinib (first compound 0.08 µM), 0.39; with Tanzisertib + Dasatinib (first compound 0.253 µM), 0.35. Also, the relative viability in the test with Tanzisertib + Dasatinib (first compound 0.8 µM) was 0.337; with Tanzisertib + Dasatinib (first compound 2.53 µM), 0.32; with Tanzisertib + Dasatinib (first compound 8 µM), 0.212; in the test with Tanzisertib + Foretinib (first compound 0.08 µM) it was 0.971; in the test with Tanzisertib + Foretinib (first compound 0.253 µM), 0.917; in the test with Tanzisertib + Foretinib (first compound 0.8 µM), 0.889. Besides, the results for the relative viability in the test with Tanzisertib + Foretinib (first compound 2.53 µM) and with Tanzisertib + Foretinib (first compound 8 µM) were 0.992 and 0.7, respectively.

For the cell line SW 1573, the relative viability in the test with Tanzisertib + Navitoclax (first compound 0.08 µM) stood at 1.02; with Tanzisertib + Navitoclax (first compound 0.253 µM) it was 0.994; with Tanzisertib + Navitoclax (first compound 0.8 µM) it was 0.974; with Tanzisertib + Navitoclax (first compound 2.53 µM), 1.05; in the test with Tanzisertib + Navitoclax (first compound 8 µM), 0.909; with Tanzisertib + Pemetrexed (first compound 0.08 µM) it was 0.809. Further, the relative viability with Tanzisertib + Pemetrexed (first compound 0.253 µM) was determined as 0.84; in the test with Tanzisertib + Pemetrexed (first compound 0.8 µM), 0.805; in the test with Tanzisertib + Pemetrexed (first compound 2.53 µM), 0.839; in the test with Tanzisertib + Pemetrexed (first compound 8 µM) it was 0.683; in the test with Tanzisertib + Dasatinib (first compound 0.08 µM), 0.595; in the test with Tanzisertib + Dasatinib (first compound 0.253 µM), 0.662. In addition, the relative viability with Tanzisertib + Dasatinib (first compound 0.8 µM) is 0.46; with Tanzisertib + Dasatinib (first compound 2.53 µM), 0.552; with Tanzisertib + Dasatinib (first compound 8 µM), 0.513; with Tanzisertib + Foretinib (first compound 0.08 µM), 0.73; in the test with Tanzisertib + Foretinib (first compound 0.253 µM), 0.92; with Tanzisertib + Foretinib (first compound 0.8 µM) it was 0.898. Further, the results for the relative viability with Tanzisertib + Foretinib (first compound 2.53 µM) and in the test with Tanzisertib + Foretinib (first compound 8 µM) were 0.933 and 0.819, respectively.
